Where no end group is shown, it is not given here.
What was measured:
[1] = system: gastric cancer cells SGC-7901; experiment: SGC-7901 transplanted tumor model in BALB/c nude mice; assay type: in vivo; conditions: intraperitoneal, 32 and 64 mg/kg·d
Experimental: SGC-7901 cells were injected subcutaneously into the back of BALB/c nude mice. After 10 days, the mice were randomly divided into 4 groups, each with 12 mice, and were administered intraperitoneally. An administration group included a model group (normal saline group), an AZD4547 group (20 mg/kg·d), and a P48 group (32 mg/kg·d, 64 mg/kg·d). The length and width of the tumor were measured using a vernier caliper. The tumor volume was calculated using a formula V=0.52×L×W^2. The weights of the mice were recorded every 3 days, and the tumor size was recorded […]. After 28 days, the nude mice were sacrificed for dissection, and tissue samples were taken out for further study. The results are shown in FIG. 6, wherein A represents the weight change of the mice, B represents the volume and size of the tumor, C represents the expression of phosphorylated FLG, FRS2α and ERK1/2 in vivo after P48 treatment, and D represents the expression of Ki67 in vivo after P48 treatment.

[2] = target: FGFR1 (Homo sapiens, UniProt P11362); experiment: Western blot of FGFR1 signaling pathway in cervical cancer cells Hela229; assay type: cell-based; set-up: endogenous in cells; host or cells: Hela229; NCI-H460; SGC-7901; MGC-803; conditions: bFGF stimulation
Experimental: Cervical cancer cells Hela229, melanoma B16-F10, lung cancer cells NCI-H460, gastric cancer cells SGC-7901 and MGC-803 were inoculated into 6-well plates, respectively. After growing adherently overnight, the cells were pretreated with P48 for 10 min or with AZD4547/SSR for 2 h, and incubated with bFGF for 15 min or with KGF for 20 min.

[3] = system: B16-F10 cells; experiment: MTT viability, B16-F10 cells; assay type: cell-based; conditions: 48 h with bFGF
Experimental: In vitro anti-tumor activity of a short peptide compound P48 Hela229 (1500 cells/100 μl), B16-F10 (1000 cells/100 μl), NCI-H460 (4000 cells/100 μl) and SGC7901 (4000 cells/100 μl) cells were inoculated in 96-well plates. After incubated overnight adherently, the original medium was replaced with a Dulbecco's modified eagle medium (DMEM) containing 0.1% fetal bovine serum (FBS) or a Roswell Park Memorial Institute 1640 (RPMI-1640) medium containing 0.1% FBS, and culture was continued for 24 h. A mixture of P48 and bFGF, or bFGF alone were added into corresponding wells, and incubated for 48 h; an MTT solution (5 mg/mL) prepared by PBS was added to the cells in each well at 37° C., and treated for 4 h. The MTT was removed by aspiration, 150 μL of DMSO was added to each well, shaking was conducted for 10 min, and an optical density (OD) value was quantified with a microplate reader (SpectraMax M2/M2e, Molecular Devices, Sunnyvale, USA) at a wavelength of 490 nm. The percentage of drug growth inhibition rate was calculated by comparing with the bFGF group. […] The experimental procedure was as follows: 10% FBS-containing medium (500 μl) was added to a lower surface of a transwell insertion chamber, the cells together with the drug were inoculated into an upper chamber, and cultured with a serum-free medium (200 μl). […]

Sequence of FGFR1 (P11362 22-822): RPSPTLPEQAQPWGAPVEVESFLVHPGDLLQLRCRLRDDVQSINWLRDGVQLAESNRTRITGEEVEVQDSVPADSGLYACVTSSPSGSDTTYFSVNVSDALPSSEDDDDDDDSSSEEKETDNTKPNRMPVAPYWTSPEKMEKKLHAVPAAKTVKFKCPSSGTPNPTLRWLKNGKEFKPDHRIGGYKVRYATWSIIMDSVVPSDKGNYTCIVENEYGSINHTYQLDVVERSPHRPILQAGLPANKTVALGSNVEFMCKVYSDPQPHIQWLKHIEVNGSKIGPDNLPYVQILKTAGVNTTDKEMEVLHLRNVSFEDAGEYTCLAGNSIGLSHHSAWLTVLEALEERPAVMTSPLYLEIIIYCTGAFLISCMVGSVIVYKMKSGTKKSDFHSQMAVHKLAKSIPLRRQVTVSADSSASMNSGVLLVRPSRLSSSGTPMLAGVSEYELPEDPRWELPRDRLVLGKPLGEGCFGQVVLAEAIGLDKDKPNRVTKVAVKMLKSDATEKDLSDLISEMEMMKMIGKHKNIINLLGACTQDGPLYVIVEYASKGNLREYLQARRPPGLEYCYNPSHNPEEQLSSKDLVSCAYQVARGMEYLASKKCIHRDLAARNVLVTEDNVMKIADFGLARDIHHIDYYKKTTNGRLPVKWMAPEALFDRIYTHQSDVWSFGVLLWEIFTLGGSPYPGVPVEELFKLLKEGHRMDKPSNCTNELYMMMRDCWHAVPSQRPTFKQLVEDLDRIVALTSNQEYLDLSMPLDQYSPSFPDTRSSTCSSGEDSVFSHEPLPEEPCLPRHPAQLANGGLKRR

SPPRYPGGGS-NH2 [P48, Ser-Pro-Pro-Arg-Tyr-Pro-Gly-Gly-Gly-Ser-NH2]
inhibition of FGFR1 signaling pathways in tumors (phosphorylated FLG, FRS2a, ERK1/2) ([1]; 28 days): desirable inhibitory effect
inhibition of tumor growth ([1]; 28 days): can significantly inhibit the growth of gastric cancer cells SGC-7901
inhibition of Ki67 expression (immunohistochemistry) ([1]; compared with control group): can inhibit the expression of Ki67 in a concentration-dependent manner
inhibition of FGFR1 signaling pathway [2]: can inhibit the FGFR1 signaling pathway of cervical cancer, melanoma, lung cancer and gastric cancer in a concentration-dependent manner
inhibition of cancer cell viability [3]: can significantly inhibit the viability of cancer cells

From US20240101600A1, “FIBROBLAST GROWTH FACTOR RECEPTOR (FGFR)-TARGETING ANTAGONISTIC SHORT PEPTIDE” (WENZHOU MEDICAL UNIVERSITY, priority 2019, published 2024)
